According to patent US12268683B2, “Compounds and methods for synergistic activation of M channels” (THE REGENTS OF THE UNIVERSITY OF CALIFORNIA, priority 2018, dated 2025):

Assays:
[1] = biological target: KCNA1 (Homo sapiens, UniProt Q09470); assay: TEVC of KCNA1 expressed in Xenopus oocytes; assay type: cell-based
Excerpt: cRNA transcripts encoding human KCNA1, KCNQ1, KCNQ2, KCNQ3, KCNQ4, or KCNQ5 were generated by in vitro transcription using the T7 polymerase message machine kit (Thermo Fisher Scientific), after vector linearization, from cDNA sub-cloned into plasmids incorporating X. laevis β-globin 5′ and 3′ UTRs flanking the coding region to enhance translation and cRNA stability. cRNA was quantified by spectrophotometry. Mutant cDNAs were generated by site-directed mutagenesis using a QuikChange kit according to manufacturer's protocol (Stratagene, San Diego, Calif.) and corresponding cRNAs prepared as above. Defolliculated stage V and VI X. laevis oocytes (Ecocyte Bioscience, Austin, Tex.) were injected with Kv channel a subunit cRNAs (10 ng total per oocyte). […]
TEVC recording was performed at room temperature with an OC-725C amplifier (Warner Instruments, Hamden, Conn.) and pClamp10.2 software (Molecular Devices, Sunnyvale, Calif.) 3-5 days after cRNA injection as described in the section above. […] Currents were recorded in response to pulses between −80 and +40 mV at 20 mV intervals, or a single pulse to +40 mV, from a holding potential of −80 mV, to yield current-voltage relationships, current magnitude, and for quantifying activation rate. […]

[2] = system: pentylene tetrazole-induced seizures; assay: PTZ chemoconvulsant assay; assay type: in vivo, mouse; conditions: for clonic seizure incidence: alone
Excerpt: We compared anticonvulsant activities of test compounds in male C57BL/6 mice (Charles River) aged 2-3 months. Mice were housed and used according to the recommendations in the Guide for the Care and Use of Laboratory Animals of the National Institutes of Health (NIH Publication, 8th edition, 2011). The study protocol was approved by the Institutional Animal Care and Use Committee of University of California, Irvine, which confirmed that all relevant ethical regulations were adhered to. Chemicals were sourced from Sigma (St. Louis, Mo., USA). A pentylene tetrazole (PTZ) chemoconvulsant assay was used-. […] Following the PTZ injection, mice were caged individually and an observer (GWA) blinded to the drug used recorded, over 20 min, clonic and tonic seizure incidence, and seizure-related mortality.
We quantified the anticonvulsant activities of (E)-2-dodecenal and tridecanal in male C57BL/6 mice (Charles River, Wilmington, Mass.) aged 2-3 months. The mice were housed and used according to the recommendations in the Guide for the Care and Use of Laboratory Animals of the National Institutes of Health (NIH Publication, 8th edition, 2011). The study protocol was approved by the Institutional Animal Care and Use Committee of University of California, Irvine. The chemicals were sourced from Sigma (St. Louis, Mo., USA). We used a pentylene tetrazole (PTZ) chemoconvulsant assay as we previously described (30). We injected the mice intraperitoneally with (E)-2-dodecenal (2 or 20 mgkg^−1) (with or without 2.5 mgkg^−1 XE991) or tridecanal (20 mgkg^−1) solubilized in PBS, or vehicle control (PBS), and then 30 minutes later we injected mice intraperitoneally with 80 mgkg-PTZ. Following the PTZ injection, the mice were caged individually and an observer (GWA) blinded to the experimental condition timed the latency to first seizure.
We compared anticonvulsant activities of 3FMSG in male C57BL/6 mice (Charles River) aged 2-3 months. Mice were housed and used according to the recommendations in the Guide for the Care and Use of Laboratory Animals of the National Institutes of Health (NIH Publication, 8th edition, 2011). The study protocol was approved by the Institutional Animal Care and Use Committee of University of California, Irvine, which confirmed that all relevant ethical regulations were adhered to. Chemicals were sourced from Sigma (St. Louis, Mo., USA). We used a pentylene tetrazole (PTZ) chemoconvulsant assay as we previously described^27. Mice were injected intraperitoneally with 3FMSG (5 mg kg^−1) or vehicle control (PBS) and then 30 minutes later injected intraperitoneally with 80 mg kg^−1 PTZ. Following the PTZ injection, mice were caged individually and an observer (GWA) blinded to the drug used recorded seizure activity over 20 minutes.

[3] = humans; cited from earlier work

Chain of KCNA1 (Q09470 whole entry): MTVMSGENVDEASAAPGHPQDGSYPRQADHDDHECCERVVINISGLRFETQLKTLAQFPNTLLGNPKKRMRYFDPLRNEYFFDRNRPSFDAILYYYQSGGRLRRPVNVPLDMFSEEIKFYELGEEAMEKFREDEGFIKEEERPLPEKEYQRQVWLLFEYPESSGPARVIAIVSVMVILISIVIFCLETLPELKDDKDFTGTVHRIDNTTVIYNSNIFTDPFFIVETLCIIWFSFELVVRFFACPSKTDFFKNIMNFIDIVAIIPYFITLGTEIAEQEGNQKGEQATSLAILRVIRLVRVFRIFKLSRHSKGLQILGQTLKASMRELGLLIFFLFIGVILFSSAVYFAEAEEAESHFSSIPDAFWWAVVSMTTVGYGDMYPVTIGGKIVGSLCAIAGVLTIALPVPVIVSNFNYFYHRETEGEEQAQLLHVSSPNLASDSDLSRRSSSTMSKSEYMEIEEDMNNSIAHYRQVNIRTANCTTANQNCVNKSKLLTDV

Structure (SMILES): CC(C)CC(=O)O [IVA, isovaleric acid]
- effect on KCNA1 (in words) [1]: did not alter currents
- clonic seizure incidence ([2]; 10 mg/kg i.p.): neither compound reduced clonic seizures alone
- clonic seizure incidence ([2]; 20 mg/kg i.p.): no effect
- suppression of PTZ-induced tonic seizures ([2]; individually): ineffective

Structure (SMILES): CC(C)CC(N)=O [Isovaleramide, isovaleramide]
- mean Tmax [3]: 30 to 45 min
- well tolerated dose [3]: at least 2400 mg per day
